Laboratory results reported in patent publication US5552267A, “Solution for prolonged organ preservation” (priority 1994, dated 1996).

How the values were obtained:
[1] = tested on: lung; experiment: orthotopic rat left lung transplantation, cGMP series (hemodynamics, oxygenation, recipient survival); type: in vivo, rat (male Lewis)
Procedure: Orthotopic rat left lung transplantation was accomplished using inbred male Lewis rats (250-300 gms), using a modification of a previously described technique^29. The donor rat was anesthetized and heparinized (500 U intravenously), and endotracheal intubation was performed by inserting a 16 gauge angiocatheter into the trachea using blunt cervical dissection, after which the rat was ventilated with room air at a constant rate (100 breaths/minute) and tidal volume (2.5 ml), using a Harvard rodent ventilator. […] The pulmonary artery (PA) and pulmonary vein (PV) were divided, the bronchus ligated with the lung partially inflated and then divided, and the lung removed. The vascular stumps were each pulled through a small plastic cylinder, and a lip of vessel was turned back around the edge and secured in place with a suture to form a "cuff." A small plastic cylinder was inserted into the bronchial stump and secured, and the lung was then wrapped in gauze and submerged in cold preservation solution for the desired interval.
The recipient rat (gender/size/strain-matched) was similarly anesthetized and intubated (ventilated with 100% oxygen), but not heparinized. A left thoracotomy was performed, the hilum was dissected, and the left bronchus, PA, and PV were isolated, cross-clamped, divided and the native lung was removed from the field. The PA and PV stumps were rinsed with heparinized saline to remove any clot. The donor lung was brought onto the surgical field, and the cylinder (bronchus) and cuffs (PA and PV) were connected rapidly to their respective structures with a simple staying suture. This cuff technique permitted rapid approximation of donor and recipient tissues with no contact of a foreign substance with the luminal vascular surface. The hilar cross-clamp was released, re-establishing blood flow, and the bronchus tie was removed, enabling gas exchange. A snare was then passed around the right PA, and a Millar catheter (2F; Millar Instruments,Houston, Tex.) was introduced through a small hole (surrounded by a pursestring) into the main PA; similarly, a Millar catheter was introduced into the left atrium (LA). A flow probe (Transonics, Ithaca, N.Y.) was then placed around the main PA. Arterial blood gas sampling performed via the left femoral artery.
Online hemodynamic monitoring was accomplished using MacLab and a Macintosh IIci computer. The hemodynamic parameters that were measured included PA pressure (mm Hg), blood flow (ml/min), LA pressure (mm Hg), as well as arterial oxygen tension (mm Hg) during inspiration of 100% oxygen; pO2 was analyzed with a model ABL-2 dissolved gas analyzer (Radiometer, Copenhagen, Denmark). Pulmonary vascular resistances (PVRs) were calculated as [mean PA pressure-LA pressure]/PA flow. The native lung supported the recipient during the period of warm ischemia (the period during which the donor lung was removed from cold preservation until the time of reperfusion, <10 min. in all instances), but immediately following rapid hemodynamic instrumentation and acquisition of baseline measurements, the native (right) PA was then ligated, and serial measurements (representative solely of the transplanted lung) were taken every five minutes for 30 minutes. Because the native lung was effectively removed from the circulation by ligation of the right PA, these measurements represent function of the transplanted lung. Recipient death was identified by the cessation of cardiac mechanical activity observed through the thoracotomy.
Preservation solutions were freshly made and coded by a technician not otherwise involved in the experiments, according to a general plan which included both control and experimental groups. […]

[2] = tested on: nitric oxide production in heart; experiment: direct measurement of coronary vascular and endocardial NO with porphyrinic microsensor; parameters: species or system rat; conditions: transplanted hearts
Procedure: Direct measurement of coronary vascular and endocardial nitric oxide synthesis were made with a porphyrinic microsensor^13 using differential pulse voltammetry or amperometry. Rat hearts were explanted and preserved as described above, and studied fresh (no preservation/transplantation) or after hypothermic preservation in lactated Ringer's (LR) solution, heterotopic transplantation, and 10 minutes of reperfusion. The coronary vasculature was flushed free of blood with LR followed by 4 ml of LR supplemented with L-Arg (2 mM) and bradykinin ([…], Sigma), which was recycled (1 ml/min) through the coronary vasculature by flushing down the cross-clamped aortic root. Aliquots of perfusate were immediately transferred to an anaerobic environment for measurements and compared to an aqueous nitric oxide reference. Differential pulse voltammograms were obtained using a sensor (working electrode), saturated calomel electrode reference, and platinum wire-auxiliary electrode, with a pulse amplitude of 40 mV. Endocardial NO was measured by implanting the sensor in the septal endocardium of a freshly explanted or preserved/transplanted heart, and after the baseline stabilization, […] bradykinin was applied and NO release continuously monitored by amperometry at constant potential of 0.63 V.

[3] = tested on: lung; experiment: orthotopic rat left lung transplantation, nitroglycerin series; type: in vivo, rat (male Lewis)
[4] = tested on: cGMP; experiment: tissue cGMP levels (radioimmunoassay, unpublished); conditions: NTG in preservation solution
[5] = tested on: neutrophil infiltration of cardiac graft; experiment: graft myeloperoxidase activity/histology, nitric oxide series; type: in vivo, rat; conditions: 12 h; NTG 0.1 mg/ml in LR
Procedure: Ten minutes following restoration of blood flow, transplanted hearts were excised and the aortic root was flushed for 5 minutes (rate of 2 ml/minute controlled by roller pump) with normal saline (Baxter, Edison, N.J.), the atria and great vessels were removed, and intracavitary blood was evacuated. Remaining ventricular pieces were weighed, homogenized, and myeloperoxidase activity measured as described^10. For histologic study, cardiac graft samples were fixed in an ascending series of aldehydes, embedded, sectioned, and stained with hematoxylin and eosin.

[6] = tested on: heart; conditions: in vivo; cited from earlier work
[7] = tested on: neutrophil accumulation in lung graft; experiment: lung graft myeloperoxidase, nitroglycerin series; type: in vivo, rat; conditions: NTG 0.1 mg/mL in EC, 6 h
Procedure: Thirty minutes following ligation of the native right pulmonary artery, or at the time of recipient death, transplanted lungs were removed, rinsed briskly in physiologic saline, and snap frozen in liquid nitrogen until the time of myeloperoxidase or TBARs assay.
Tissue was homogenized in phosphate buffer (50 mM, pH 5.5, 5 ml/gm of tissue) containing hexadecyltrimethyl ammonium bromide (0.5%, Sigma). The assay was performed, as previously described^35, by thawing the sample, centrifuging at 40,000 g for 15 minutes, and decanting the supernatant, which was assayed for myeloperoxidase activity using a standard chromogenic spectrophotometric technique in which test sample (0.03 mL) was added to phosphate buffer (0.97 mL) containing O-dianisidinedihydrochloride (Sigma) and hydrogen peroxide (0.0005%), and change in absorbance at 460 nm was measured over 1 minute (increase in OD was linear over this time interval).

[8] = 6 h in EC, 8-Br-cGMP 0.5 mM where added
[9] = 6 h in EC, NTG 0.1 mg/mL where added

Row | SMILES | recipient survival ([1]; 4 h preservation in LR) [%] | arterial oxygenation [1, 8] [mm Hg] | pulmonary arterial blood flow [1, 8] [mL/min] | pulmonary vascular resistance [1, 8] [Woods units×10^-3] | recipient survival [1, 8] [%] | concentration of maximal beneficial effect ([1]; range 0.005 to 0.5 mM, 6 h in EC) [mM] | effect on NO levels [2] | pulmonary artery flushing time ([3]; 30 mL at constant pressure during harvest) [s] | recipient survival ([3]; 6 h in EC, 30 min, supplements NTG 0.1 mg/mL, hydralazine 0.02 μg/mL) [%] | arterial oxygenation [3, 9] [mm Hg] | pulmonary arterial flow [3, 9] [mL/min] | pulmonary vascular resistance [3, 9] | concentration of maximal beneficial effect ([3]; range 0.001 to 0.1 mg/mL) [mg/mL] | tissue cGMP levels [4] | neutrophil infiltration [5] | effect in cardiac ischemia models [6] | graft neutrophil accumulation [7]
1 | Nc1nc2c(nc(Br)n2[C@@H]2O[C@@H]3COP(=O)(O)O[C@H]3[C@H]2O)c(=O)[nH]1 [8-Br-cGMP, 8-bromoguanosine-3'5' cyclic monophosphate] | 86 | 474±41 | 26 ± 2.3 | 1.1±0.14 | 100 | 0.5 | did not alter NO levels | – | – | – | – | – | – | – | – | – | –
2 | O=[N+]([O-])OCC(CO[N+](=O)[O-])O[N+](=O)[O-] [NTG, nitroglycerin] | – | – | – | – | – | – | – | 86.4 ± 4.9 | 100 | 501±31 | 21.4 ± 2.9 | 1.4±0.1 ×10^3 Woods units | 0.1 | augments tissue cGMP levels | marked decrease in neutrophil infiltration | blunt myocardial injury and neutrophil accumulation during reperfusion | significant decline in both neutrophil and platelet accumulation
